Source: paper PMC12692346, “Imidazolinium-Based NHC–Metal Complexes Overcome Both Cancer Multidrug Resistance and Cisplatin Resistance In Vitro” (International Journal of Molecular Sciences, 2025)

How the values were obtained:
[1] = tested on: CST-2/3 cisplatin-resistant cells; assay: Monoculture PrestoBlue cytotoxicity test, cisplatin-resistant CST-2/3; format: cell-based, mouse; conditions: for RR_CST resistance ratio (IC50_CST-2/3 / IC50_CST): CST-2/3 vs CST; for IC50: monoculture, 120 h exposure, PrestoBlue
Method: (§1) CST, a drug-naïve murine breast cancer cell line, and cisplatin-resistant cells CST-2/3 were seeded in monoculture into 384-well plates (Corning Inc., Corning, NY, USA) at a density of 2500 cells per well using automated liquid-handling. The cells were preincubated for 24 h to ensure adherence, followed by the addition of serially diluted compounds to a final well volume of 60 µL. Following 120 h of continuous drug exposure, cell viability was quantified using the PrestoBlue viability assay (Thermo Fisher Scientific, Waltham, MA, USA) after 1 h incubation at 555 nm excitation and 585 nm emission wavelengths.
(§2) pIC50 values derived from both co- and monoculture systems were determined by a custom program written in C# [25], then average and standard deviations were calculated and transformed to IC50 values. Every compound was tested in at least 3 independent experiments in triplicates.

[2] = tested on: Mes-Sa mCherry uterine sarcoma cell line; assay: Triple coculture fluorescence cytotoxicity test, parental line; format: cell-based, human; conditions: 144 h incubation, fluorescence readout
Method: (§3) All synthesized complexes and representatives of the respective ligands (Lb, Lc, SIPr, IPr) were tested in a triple coculture of uterine sarcoma cell lines, consisting of the parental Mes-Sa cell line, and its MDR derivatives Mes-Sa/B1 and Mes-Sa/Dx5, transfected or selected in doxorubicin to overexpress P-glycoprotein, respectively (Figure 2a–c, Table S2). Each cell line expresses a distinct fluorescent protein (mCherry, mOrange, and eGFP, respectively), and the total fluorescence of a well is proportional to the cell number, allowing the assessment of compound cytotoxicity.
(§4) In a triple coculture system, cell lines expressing different fluorescent proteins were seeded in the same well. Cell lines (Mes-Sa mCherry, Mes-Sa/B1 mOrange, Mes-Sa/Dx5 eGFP [25]) were admixed and seeded on 384-well plates at a density of 3 × 800 cells/well (1:1:1 ratio), resulting in an overall total of 2400 cells. The next day, serially diluted compounds were added to the wells. Liquid handling was managed by a Hamilton StarLet pipetting robot. After 144 h of incubation, the fluorescence of mCherry (ex/em: 585/610 nm), mOrange (ex/em: 545/567 nm) and eGFP (ex/em: 485/510 nm) was recorded with an EnSpire plate reader (PerkinElmer, Waltham, MA, USA).
as §2

[3] = tested on: MSCL-1 mesenchymal stem cell-like cell line; assay: PrestoBlue cytotoxicity test, non-malignant MSCL-1; format: cell-based, human; conditions: for IC50: 72 h treatment, PrestoBlue; for MSCL-1 / CST ratio (IC50_MSCL-1/IC50_cancer line): MSCL-1 vs CST; for MSCL-1 / Mes-Sa ratio (IC50_MSCL-1/IC50_cancer line): MSCL-1 vs Mes-Sa
Method: The MSCL-1 line was seeded on 96-well plates with 15,000 cells/well density, and the following day, it was treated with the compounds for 72 h, when cell viability was assessed using a PrestoBlue viability assay.
as §2

[4] = tested on: Mes-Sa/Dx5 eGFP; assay: Triple coculture fluorescence cytotoxicity test, doxorubicin-selected MDR line; format: cell-based, human; conditions: for RR_Dx5 resistance ratio (IC50_MDR line / IC50_parental line) of Mes-Sa/Dx5: Mes-Sa/Dx5 vs Mes-Sa; for IC50: triple coculture, 144 h incubation, fluorescence readout
Method: as §3, §4, §2

[5] = tested on: CST murine breast cancer cell line; assay: Monoculture PrestoBlue cytotoxicity test, CST; format: cell-based, mouse; conditions: 120 h exposure
Method: as §1, §2

[6] = tested on: Mes-Sa/B1 mOrange; assay: Triple coculture fluorescence cytotoxicity test, ABCB1-transfected MDR line; format: cell-based, human; conditions: for RR_B1 resistance ratio (IC50_MDR line / IC50_parental line) of Mes-Sa/B1: Mes-Sa/B1 vs Mes-Sa; for IC50: triple coculture, 144 h incubation, fluorescence readout
Method: as §3, §4, §2

[7] = tested on: Mes-Sa cells; assay: H2DCFDA intracellular ROS assay in Mes-Sa; format: cell-based, human; conditions: 25 µM, 4 h incubation; for increase in intracellular ROS: vs 0 h
Method: (§5) Intracellular ROS production was assessed by the H2DCFDA—Cellular ROS Assay Kit (ab113851, Abcam, Cambridge, UK) according to the manufacturer’s instructions. Briefly, 20,000 cells (Mes-Sa and CST) were seeded on 96-well plates 1 day prior to the experiment. The cells were washed and incubated with H2DCFDA solution for 45 min in the dark. Following an additional washing step, test compounds were added in complete, phenol red free medium (FluoroBrite™, Thermo Fisher Scientific), at a final concentration of 25 µM. Fluorescence of 2′,7′-dichlorofluorescein (DCF) was measured at 484 nm/535 nm excitation/emission wavelengths. Data were normalized to baseline (0 h) values and represent at least three independent experiments.

[8] = tested on: CST cells; assay: H2DCFDA intracellular ROS assay in CST; format: cell-based, mouse; conditions: 25 µM, 4 h incubation; for increase in intracellular ROS: vs 0 h
Method: as §5

| Structure (SMILES) | RR_CST resistance ratio (IC50_CST-2/3 / IC50_CST) [1] | IC50 [1] | IC50 [2] | IC50 [3] | MSCL-1 / CST ratio (IC50_MSCL-1/IC50_cancer line) [3] | MSCL-1 / Mes-Sa ratio (IC50_MSCL-1/IC50_cancer line) [3] | RR_Dx5 resistance ratio (IC50_MDR line / IC50_parental line) of Mes-Sa/Dx5 [4] | IC50 [4] | IC50 [5] | RR_B1 resistance ratio (IC50_MDR line / IC50_parental line) of Mes-Sa/B1 [6] | IC50 [6] | intracellular ROS induction compared to serum-containing medium (in words) [7] | also measured |
| --- | --- | --- | --- | --- | --- | --- | --- | --- | --- | --- | --- | --- | --- |
| N.N.[Cl][Pt][Cl] [Cisplatin] | 5.5 | 820 nM | 2520 nM | 17000 nM | 113.6 | 6.8 | 2.3 | 5910 nM | 150 nM | 0.8 | 2130 nM |  |  |
| CC(C)c1cccc(C(C)C)c1N1[C](=[Au][Cl])N([C@@H](C)c2ccccc2)C[C@@H]1C(C)(C)C [Compound 3b] | 1.1 | 25100 nM | 6170 nM |  |  |  | 1.6 | 9920 nM | 22900 nM | 2.4 | 14800 nM |  |  |
| CC(C)c1cccc(C(C)C)c1N1[C](=[Au][Cl])N([C@@H](C)c2cccc3ccccc23)C[C@@H]1C(C)(C)C [Compound 3d] | 1.4 | 8380 nM | 7810 nM |  |  |  | 2.5 | 19400 nM | 6170 nM | 2.8 | 21900 nM |  |  |
| C=C[CH2][Pd]([Cl])=[C]1N([C@H](C)c2ccccc2)C[C@H](C(C)(C)C)N1c1c(C(C)C)cccc1C(C)C [Compound 4c] | 1.2 | 1350 nM | 2340 nM |  |  |  | 4.3 | 10100 nM | 1100 nM | 2.4 | 5620 nM |  |  |
| CC(C)c1cccc(C(C)C)c1N1CCN(c2c(C(C)C)cccc2C(C)C)[C]1=[Cu][Cl] [Compound 5a] | 1.5 | 270 nM | 420 nM | 1150 nM | 6.5 | 2.7 | 1.0 | 430 nM | 180 nM | 1.0 | 440 nM |  | increase in intracellular ROS [7]: 72%; increase in intracellular ROS [8]: 88% |
| CC(C)c1cccc(C(C)C)c1N1CCN(c2c(C(C)C)cccc2C(C)C)[C]1=[Ag][Cl] [Compound 6a] | 1.7 | 880 nM | 610 nM | 1240 nM | 2.3 | 2.0 | 1.5 | 890 nM | 530 nM | 1.6 | 980 nM | did not significantly induce | increase in intracellular ROS [8]: 107% |
| CC(C)c1cccc(C(C)C)c1N1CCN(c2c(C(C)C)cccc2C(C)C)[C]1=[Au][Cl] [Compound 7a] | 1.0 | 12600 nM | 8450 nM | 25700 nM | 2.1 | 3.0 | 2.2 | 18500 nM | 12200 nM | 1.7 | 14400 nM | did not significantly induce | intracellular ROS induction compared to untreated control (in words) [8]: No significant ROS induction |
| C=C[CH2][Pd]([Cl])=[C]1N(c2c(C(C)C)cccc2C(C)C)CCN1c1c(C(C)C)cccc1C(C)C [Compound 8a] | 1.3 | 2000 nM | 2680 nM | 2980 nM | 2.0 | 1.1 | 2.2 | 5960 nM | 1520 nM | 2.0 | 5250 nM |  |  |
| CC(C)c1cccc(C(C)C)c1N1CCN(c2c(C(C)C)cccc2C(C)C)[C]1=[Cu+]=[C]1N(c2c(C(C)C)cccc2C(C)C)CCN1c1c(C(C)C)cccc1C(C)C.F[B-](F)(F)F [Compound 9a] | 2.2 | 240 nM | 72 nM | 810 nM | 7.3 | 11.2 | 14.3 | 1040 nM | 110 nM | 11.6 | 840 nM |  | increase in intracellular ROS [7]: 99%; increase in intracellular ROS [8]: 61% |
| CC(C)c1cccc(C(C)C)c1N1CCN(c2c(C(C)C)cccc2C(C)C)[C]1=[Ag+]=[C]1N(c2c(C(C)C)cccc2C(C)C)CCN1c1c(C(C)C)cccc1C(C)C.F[B-](F)(F)F [Compound 10a] | 2.4 | 218 nM | 36 nM | 560 nM | 6.1 | 15.7 | 162.2 | 5790 nM | 92 nM | 79.5 | 2840 nM | did not significantly induce | intracellular ROS induction compared to untreated control (in words) [8]: No significant ROS induction |
| CC(C)c1cccc(C(C)C)c1N1C=[N+]([C@@H](C)c2ccccc2)C[C@@H]1C(C)(C)C [Lb] | 2.0 |  |  |  |  |  | 26.1 |  |  | 22.7 |  |  | IC50 ([1]; Mus musculus): 9690 nM; IC50 ([2]; Homo sapiens, MES-SA): 1830 nM; IC50 ([4]; Homo sapiens, MES-SA/Dx5): 47900 nM; IC50 ([5]; Mus musculus): 4950 nM; IC50 ([6]; Homo sapiens, MES-SA): 41700 nM |
| CC(C)c1cccc(C(C)C)c1N1C=[N+](c2c(C(C)C)cccc2C(C)C)CC1 [SIPr, reference compound] | 3.4 |  |  |  | 2.0 | 2.3 | 20.9 |  |  | 10.9 |  | did not significantly induce | IC50 ([1]; Mus musculus): 20300 nM; IC50 ([2]; Homo sapiens, MES-SA): 5050 nM; IC50 ([3]; Homo sapiens): 11700 nM; IC50 ([4]; Homo sapiens, MES-SA/Dx5): 106000 nM; IC50 ([5]; Mus musculus): 5920 nM; intracellular ROS induction compared to untreated control (in words) [8]: No significant ROS induction; IC50 ([6]; Homo sapiens, MES-SA): 55000 nM |
